By mass density is commonly meant the mass of a sample divided by its volume. As a reminder, the refractive index is a measure of how strongly the sample bends light.

The conditions of data set [1]: 101.33 kPa, Liquid, Vibrating tube method.
Data set [2] can be described thus: refractive index (Na D-line) (dimensionless). Particulars: 298.15 K; 101.33 kPa; Liquid; Standard Abbe refractometry.

Molecules are shown by their SMILES. Numbers after ± are expanded uncertainties.

As for `CCCCn1cc[n+](C)c1.F[P-](F)(F)(F)(F)F` [1-butyl-3-methylimidazolium hexafluorophosphate], the mass density is listed as 1371.4 ± 1.2 kg/m3 in data set [1] (293.15 K) and 1367.23 ± 1.1 kg/m3 in data set [1] (298.15 K). Besides, the refractive index in data set [2] is on record as 1.40926 ± 0.0006.

Values taken from the NIST ThermoML archive (doi:10.1016/j.fluid.2013.11.034).
